Data taken from patent publication US7119208B2, “Anti-sickling agents” (Virginia Commonwealth University, priority 2003, dated 2006).
Where “and” joins values, the source holds several entries; their conditions need not be identical. Identical values can stand only once. Entries after “also recorded” stand apart in the source; their conditions may differ.

Legend:
[1] = molecular target: T1, HbS (Homo sapiens, UniProt P68871+P69905, E7V); test: Oxygen equilibrium analysis of hemolysate from compound-treated SS cells; format: cell-based; settings: hemolysate after incubation of 5 mM compound with SS cells; for Hemolysate ΔP50: treated minus control
T1 construct: The compound-treated SS cells obtained in the preceding experiment (oxygen equilibrium studies with SS cells) were hemolyzed; endogenous in cells; host or cells: homozygous sickle red blood (SS) cells from patients with SCD; hemolysate of the compound-treated cells

[2] = test system: SS cells; test: Antisickling studies with homozygous sickle red blood cells; format: cell-based, human; settings: for predicted antisickling activities: not determined, predicted from structure-activity relationships
[3] = molecular target: T1, HbS; test: HbS adduct formation, cation-exchange HPLC of hemolysate from compound-treated SS cells; format: cell-based; settings: 5 mM compound, HPLC of hemolysate after incubation with SS cells
[4] = test system: SS cells; test: Oxygen equilibrium studies with homozygous sickle red blood cells; format: cell-based, human; settings: 5 mM compound; for SS cells P50: SS cells 10% hematocrit; for SS cells ΔP50: treated minus control
Method: SS cells were suspended in PBS to a final hematocrit of 10%. […] A 40 uL aliquot of this suspension was added to 4 ml Hemox buffer and subjected to oxygen equilibrium analysis (37° C.) using a Hemox-Analyzer (TCS Scientific Corp., Southampton, Pa.) (Asakura, 1979).

[5] = test system: SS cells; test: Antisickling studies with homozygous sickle red blood cells; format: cell-based, human; settings: for inhibition at 5000 µM: Homo sapiens, Erythrocyte, read-out: Inhibition of sickling of SS cells
Method: Briefly, SS cells suspended in buffered saline solution, pH 7.4 (hematocrit of 10 %) were incubated at 37° C. with 4% oxygen in the presence of 5 mM compound. Aliquots (10 ul) of the suspensions were obtained after 5 hrs and fixed with 2% glutaraldehyde solution without exposure to air. Morphological analysis and percentage of SS cells that were not sickled were conducted using a computer-assisted image analysis system as described elsewhere (Hijiya, 1991).

[6] = test system: SS cells; test: Effect of compounds on homozygous sickle red blood cell size (MCV); format: cell-based, human; settings: for changes in cell volumes of SS cells: 1, 2, and 5 mM compound
Method: To study the effect of the compounds on the degree of hydration/dehydration of SS cells, the compound-treated SS cells obtained in the preceding experiment (antisickling studies with SS cells) were evaluated with a Hemavet Cell Analyzer to determine the mean corpuscular volume (MCV).

[7] = molecular target: T2, Hb (Homo sapiens, UniProt P69905); test: Co-crystallization of compounds with Hb, X-ray crystallography; format: binding; set-up: Purified human adult Hb in 50 mM Bis Tris buffer, pH 6.8, was prepared from discarded human blood; from tissue; host or cells: discarded human blood; Hb purified in house as in Safo and Abraham, 2003; settings: deoxy Hb
[8] = test system: AA cells; test: Oxygen equilibrium studies with normal whole blood; format: cell-based, human; settings: for P50: AA cells 40% hematocrit; for n50 (Hill coefficient at 50% saturation in the presence of compound) / ΔP50 = P50d − P50c / P50d (value in the presence of compound): thiophene aldehydes, 5 mM, whole blood; for P50d (value in the presence of compound): repeat measurements; for effect on the OEC of whole blood: normal adult whole blood, multi-point tonometry, in vitro
[9] = test system: patients with SCD; settings: cited from earlier work; for clinical toxicity: human, in vivo
[10] = test system: Tg sickle mice; test: In vivo antisickling effect in transgenic sickle mice exposed to hypoxia; settings: 5% oxygen
Text: In vivo antisickling effect of 5-HMF was investigated using transgenic (Tg) mice that produce human Hb S. Since the blood of wild type mice has an extremely right-shifted OEC (P50 of mouse blood: 40–44 mm Hg) as compared with the OEC of human blood (P50 of AA cells: 26.5 mm Hg; SS cells: 32 mm Hg), Tg sickle mice that produce approximately equal amounts of human and mouse […] and 100% human β^s-globin were used in this study. The P50 of these mice are between 26 and 34 mm Hg depending on the percentage of mouse β-globin. We used 5% oxygen (5% O2, 95% N2), because they develop pulmonary sequestration almost exclusively upon exposure of these mice to 5% O2. […] Upon exposure to hypoxia, we determine the percentage of sickled cells in the blood as well as the survival time. […] In the hypoxia experiments, the Tg sickle mice were exposed to hypoxia for up to 1 hr; any surviving mice at 1 hr were euthanized by cervical dislocation under anesthesia. In all cases, after the mouse died, it was immediately dissected. The heart, lungs, brain, liver, spleen, and kidneys were fixed in 10% phosphate-buffered formalin. Tissue samples were embedded in paraffin according to standard methods. Sections were cut and stained by a hematoxylin-eosin solution for light microscopy.

[11] = molecular target: T2, Hb; settings: Schiff base with N-terminal Val1 of T state Hb; cited from earlier work
[12] = cited from earlier work
[13] = 5 mM compound, 4% oxygen, 10% hematocrit, 5 hrs
[14] = 5 mM compound, P50 of treated AA cells minus P50 of control

Compound: O=Cc1ccco1 [FUF, 2-furfuraldehyde]
- Hemolysate P50 [1]: 5.3 ± 0.6 mmHg
- Hemolysate ΔP50 [1]: −5.9 mmHg
- Sickling of SS cells ([2]; 1 mM compound, 4% oxygen): 100%
- Sickling of SS cells ([2]; 2 mM compound, 4% oxygen): 100%
- inhibition at 1000 µM ([2]; Homo sapiens, Erythrocyte, 1 mM compound, 4% oxygen, read-out: Inhibition of sickling of SS cells): 0%
- inhibition at 2000 µM ([2]; Homo sapiens, Erythrocyte, 2 mM compound, 4% oxygen, read-out: Inhibition of sickling of SS cells): 0%
- HbS adduct [3]: 24% and 24 ± 5.7%
- SS cells P50 [4]: 15.4 ± 1.7 mmHg
- SS cells ΔP50 [4]: −15.8 mmHg
- Sickling of SS cells [5, 13]: 70%
- inhibition at 5000 µM [5, 13]: 30%
- MCV ([6]; 1 mM compound): 60.3 fL
- MCV ([6]; 2 mM compound): 60.0 fL
- MCV ([6]; 5 mM compound): 62.8 fL
- changes in cell volumes of SS cells [6]: did not result in changes in cell volumes
- compound binding in T state co-crystals [7]: only weak binding
- n50 (Hill coefficient at 50% saturation) ([8]; 5 mM compound): 2.30 ± 0.01
- P50 ([8]; 5 mM compound, 37° C.): 14.49 ± 0.06 mmHg
- ΔP50 [8, 14]: −11.35 mmHg

Compound: O=Cc1ccc(Br)s1 [5-Bromo-2-thiophenecarboxyaldehyde]
- n50 (Hill coefficient at 50% saturation in the presence of compound) [8]: 2.35
- ΔP50 = P50d − P50c [8]: −6.63 mmHg
- P50d (value in the presence of compound) [8]: 21.96 mmHg and 20.24 mmHg

Compound: CCc1ccc(C=O)o1 [Compound 5EF, 5-Ethyl-2-furfuraldehyde]
- predicted antisickling activities [2]: lie between those of FUF and 5HMF
- n50 (Hill coefficient at 50% saturation) ([8]; 5 mM compound): 1.77 ± 0.14
- P50 ([8]; 5 mM compound, 37° C.): 10.13 ± 0.75 mmHg
- ΔP50 [8, 14]: −15.71 mmHg

Compound: O=Cc1c(O)cccc1OCCCCC(=O)O [Compound 12C79]
- clinical toxicity [9]: clinically non-toxic
- compound-Hb adducts ([9]; intravenous infusion 40 mg/kg, patients with SCD): more than 30%

Compound: CCOC(=O)C1CSC(c2ccc(CO)o2)N1 (stereo not shown) [MSDD1, 5-hydroxymethyl-2-furfural-thiazolidine-4-carboxylic acid ethyl ester]
- effect on the OEC of whole blood [8]: does not have effect on the OEC

Compound: Cc1ccc(C=O)o1 [Compound 5MF, 5-Methyl-2-furfuraldehyde]
- predicted antisickling activities [2]: lie between those of FUF and 5HMF
- n50 (Hill coefficient at 50% saturation) ([8]; 5 mM compound): 1.70 ± 0.06
- P50 ([8]; 5 mM compound, 37° C.): 9.68 ± 0.24 mmHg
- ΔP50 [8, 14]: −16.16 mmHg

Compound: O=Cc1ccc(CO)o1 [Compound 5HMF, 5-hydroxymethyl-2-furfuraldehyde]
- Hemolysate P50 [1]: 1.8 ± 0.3 mmHg
- Hemolysate ΔP50 [1]: −9.4 mmHg
- Inhibition of sickling of SS cells ([2]; 1 mM compound, 4% oxygen): 13%
- Sickling of SS cells ([2]; 1 mM compound, 4% oxygen): 87%
- Inhibition of sickling of SS cells ([2]; 2 mM compound, 4% oxygen): 42%
- Sickling of SS cells ([2]; 2 mM compound, 4% oxygen): 58%
- HbS adduct [3]: 70% and 70 ± 10.0%
- SS cells P50 [4]: 6.0 ± 1.2 mmHg
- SS cells ΔP50 [4]: −25.2 mmHg
- inhibition of cell sickling, times more than FUF ([5]; 5 mM): ~2.5 times
- Inhibition of sickling of SS cells [5, 13]: 90%
- Sickling of SS cells [5, 13]: 10%
- MCV ([6]; 1 mM compound): 62.5 fL
- MCV ([6]; 2 mM compound): 61.0 fL
- MCV ([6]; 5 mM compound): 61.4 fL
- changes in cell volumes of SS cells [6]: did not result in changes in cell volumes
- percentage of sickled cells in the arterial blood ([10]; 5HMF 100 mg/kg): reduced the formation of POSCs; also recorded: reduced the percentage of sickled cells
- survival of more than half of the mice ([10]; 5HMF pretreatment): > 25 min
- survival time under hypoxia compared to control ([10]; 5HMF pretreatment): significantly prolonged the survival time; also recorded: prolonged the survival time significantly; also recorded: about four times longer
- compound binding in T state co-crystals [7]: only weak binding
- n50 (Hill coefficient at 50% saturation) ([8]; 1 mM compound): 2.08 ± 0.14
- ΔP50 ([8]; 1 mM compound): −6.65 mmHg
- P50 ([8]; 1 mM compound): 19.19 ± 1.51 mmHg
- n50 (Hill coefficient at 50% saturation) ([8]; 2 mM compound): 1.98 ± 0.08
- ΔP50 ([8]; 2 mM compound): −10.80 mmHg
- P50 ([8]; 2 mM compound): 15.04 ± 0.51 mmHg
- n50 (Hill coefficient at 50% saturation) ([8]; 5 mM compound): 1.88 ± 0.06
- P50 ([8]; 5 mM compound, 37° C.): 8.32 ± 0.40 mmHg
- ΔP50 [8, 14]: −17.52 mmHg
- effect on the OEC of whole blood [8]: able to shift the OEC to the left

Compound: O=Cc1ccc(O)c(C(=O)O)c1 [FSA, 5-formylsalicylic acid]
- shift of the OEC [11]: shift the OEC toward the right

Compound: COc1cc(C=O)ccc1O [Vanillin, vanillin, reference compound]
- SS cells P50 [4]: 17.7 ± 2.2 mmHg
- SS cells ΔP50 [4]: −13.5 mmHg
- Sickling of SS cells [5, 13]: 80%
- inhibition at 5000 µM [5, 13]: 20%
- MCV ([6]; 5 mM compound): 61.0 fL
- acute oral LD50 ([12]; species not stated): 1580 mg/kg
- LD50 ([12]; unit taken from the 5HMF value in the same sentence): 1580 mg/kg
- n50 (Hill coefficient at 50% saturation) ([8]; 5 mM compound): 1.98 ± 0.23
- P50 ([8]; 5 mM compound, 37° C.): 19.06 ± 1.98 mmHg
- ΔP50 [8, 14]: −6.78 mmHg
- clinical toxicity [9]: clinically non-toxic

Compound: Cc1ccsc1C=O [3-Methyl-2-thiophenecarboxyaldehyde]
- n50 (Hill coefficient at 50% saturation in the presence of compound) [8]: 2.35
- ΔP50 = P50d − P50c [8]: −7.01 mmHg
- P50d (value in the presence of compound) [8]: 21.55 mmHg and 20.63 mmHg

Compound: O=Cc1cc(Br)cs1 [4-Bromo-2-thiophenecarboxyaldehyde]
- n50 (Hill coefficient at 50% saturation in the presence of compound) [8]: 2.41
- ΔP50 = P50d − P50c [8]: −10.56 mmHg
- P50d (value in the presence of compound) [8]: 16.85 mmHg and 17.49 mmHg

Compound: Cc1cc(C=O)cc(C)c1O [DMHB, 3,5-dimethyl-4-hydroxybenzaldehyde]
- shift of the OEC [11]: shift the OEC toward the left
